Test results taken from the NIST ThermoML archive (doi:10.1021/je200721d).

Assay: xn = mol fraction of the nth substance listed
Details: Liquid, Vibrating tube method

CCCCCCCCCC [decane] + CCCCCC
Details	mass density [kg/m3]
332.93 K, 7000 kPa, x2 = 0.8991	643.52
332.93 K, 8000 kPa, x2 = 0.8991	644.74
332.93 K, 9000 kPa, x2 = 0.8991	645.94
332.93 K, 10000 kPa, x2 = 0.8991	647.14
332.93 K, 11000 kPa, x2 = 0.8991	648.32
332.93 K, 12000 kPa, x2 = 0.8991	649.47
332.93 K, 13000 kPa, x2 = 0.8991	650.61
332.93 K, 14000 kPa, x2 = 0.8991	651.73
332.93 K, 15000 kPa, x2 = 0.8991	652.84
332.93 K, 16000 kPa, x2 = 0.8991	653.92
332.93 K, 17000 kPa, x2 = 0.8991	654.97
332.93 K, 18000 kPa, x2 = 0.8991	655.99
332.93 K, 19000 kPa, x2 = 0.8991	657.01
332.93 K, 20000 kPa, x2 = 0.8991	657.98
332.93 K, 21000 kPa, x2 = 0.8991	658.93
332.93 K, 22000 kPa, x2 = 0.8991	659.86
332.93 K, 23000 kPa, x2 = 0.8991	660.76
332.93 K, 24000 kPa, x2 = 0.8991	661.64
332.93 K, 25000 kPa, x2 = 0.8991	662.49
333.08 K, 1000 kPa, x2 = 0.2185	689.16
333.08 K, 2000 kPa, x2 = 0.2185	690.17
333.08 K, 3000 kPa, x2 = 0.2185	691.16
333.08 K, 4000 kPa, x2 = 0.2185	692.16
333.08 K, 5000 kPa, x2 = 0.2185	693.16
333.08 K, 6000 kPa, x2 = 0.2185	694.13
333.08 K, 7000 kPa, x2 = 0.2185	695.1
333.08 K, 8000 kPa, x2 = 0.2185	696.06
333.08 K, 9000 kPa, x2 = 0.2185	697.02
333.08 K, 10000 kPa, x2 = 0.2185	697.94
333.08 K, 10990 kPa, x2 = 0.2185	698.86
333.08 K, 12000 kPa, x2 = 0.2185	699.77
333.08 K, 13000 kPa, x2 = 0.2185	700.66
333.08 K, 14000 kPa, x2 = 0.2185	701.54
333.08 K, 15000 kPa, x2 = 0.2185	702.39
333.08 K, 16000 kPa, x2 = 0.2185	703.25
333.08 K, 17000 kPa, x2 = 0.2185	704.09
333.08 K, 18000 kPa, x2 = 0.2185	704.93
333.08 K, 19000 kPa, x2 = 0.2185	705.76
333.08 K, 20000 kPa, x2 = 0.2185	706.56
333.08 K, 21000 kPa, x2 = 0.2185	707.37
333.08 K, 22000 kPa, x2 = 0.2185	708.17
333.08 K, 23000 kPa, x2 = 0.2185	708.95
333.08 K, 24000 kPa, x2 = 0.2185	709.72
333.08 K, 25000 kPa, x2 = 0.2185	710.48
333.1 K, 1000 kPa, x2 = 0.7524	650.65
333.1 K, 2000 kPa, x2 = 0.7524	651.99
333.1 K, 3000 kPa, x2 = 0.7524	653.29
333.1 K, 4000 kPa, x2 = 0.7524	654.52
333.1 K, 5000 kPa, x2 = 0.7524	655.72
333.1 K, 6000 kPa, x2 = 0.7524	656.92
333.1 K, 7000 kPa, x2 = 0.7524	658.07
333.1 K, 8000 kPa, x2 = 0.7524	659.21
333.1 K, 9000 kPa, x2 = 0.7524	660.35
333.1 K, 10000 kPa, x2 = 0.7524	661.46
333.1 K, 10990 kPa, x2 = 0.7524	662.52
333.1 K, 12000 kPa, x2 = 0.7524	663.6
333.1 K, 13000 kPa, x2 = 0.7524	664.65
333.1 K, 14000 kPa, x2 = 0.7524	665.67
333.1 K, 15000 kPa, x2 = 0.7524	666.7
333.1 K, 16000 kPa, x2 = 0.7524	667.68
333.1 K, 17000 kPa, x2 = 0.7524	668.66
333.1 K, 18000 kPa, x2 = 0.7524	669.62
333.1 K, 19000 kPa, x2 = 0.7524	670.59
333.1 K, 20000 kPa, x2 = 0.7524	671.52
333.1 K, 21000 kPa, x2 = 0.7524	672.45
333.1 K, 22000 kPa, x2 = 0.7524	673.35
333.1 K, 23000 kPa, x2 = 0.7524	674.23
333.1 K, 24000 kPa, x2 = 0.7524	675.08
333.1 K, 25000 kPa, x2 = 0.7524	675.91
333.12 K, 1000 kPa, x2 = 0.0456	697.88
333.12 K, 2000 kPa, x2 = 0.0456	698.9
333.12 K, 3000 kPa, x2 = 0.0456	699.91
333.12 K, 4000 kPa, x2 = 0.0456	700.9
333.12 K, 5000 kPa, x2 = 0.0456	701.88
333.12 K, 6000 kPa, x2 = 0.0456	702.84
333.12 K, 7000 kPa, x2 = 0.0456	703.78
333.12 K, 8000 kPa, x2 = 0.0456	704.71
333.12 K, 9000 kPa, x2 = 0.0456	705.63
333.12 K, 10000 kPa, x2 = 0.0456	706.54
333.12 K, 10990 kPa, x2 = 0.0456	707.42
333.12 K, 12000 kPa, x2 = 0.0456	708.3
333.12 K, 13000 kPa, x2 = 0.0456	709.16
333.12 K, 14000 kPa, x2 = 0.0456	710.01
333.12 K, 15000 kPa, x2 = 0.0456	710.86
333.12 K, 16000 kPa, x2 = 0.0456	711.67
333.12 K, 17000 kPa, x2 = 0.0456	712.48
333.12 K, 18000 kPa, x2 = 0.0456	713.29
333.12 K, 19000 kPa, x2 = 0.0456	714.08
333.12 K, 20000 kPa, x2 = 0.0456	714.87
333.12 K, 21000 kPa, x2 = 0.0456	715.64
333.12 K, 22000 kPa, x2 = 0.0456	716.39
333.12 K, 23000 kPa, x2 = 0.0456	717.15
333.12 K, 24000 kPa, x2 = 0.0456	717.89
333.12 K, 25000 kPa, x2 = 0.0456	718.63
